Laboratory results reported in paper PMC8044163, “Vitamin D and lumisterol derivatives can act on liver X receptors (LXRs)” (Scientific Reports, 2021).

Test system: murine dermal fibroblasts
Assay: RNA-Seq of newborn murine dermal fibroblasts
Assay type: cell-based, mouse
Conditions: 10^−7 M, 24 h

Structure (SMILES): C=C1CCC(O)CC1=CC=C1CCCC2(C)C1CCC2C(C)(O)CC(O)CC(C)C (centres unmarked) [20,23(OH)2D3]
- Adh7 expression level: 1.158
- Adh7 log2(fold_change) vs control: 2.167
- Aqp11 expression level: 0.9828
- Aqp11 log2(fold_change) vs control: 2.131
- Arid3b expression level: 0.2183
- Arid3b log2(fold_change) vs control: -3.968
- Bicd1 expression level: 0.8132
- Bicd1 log2(fold_change) vs control: -1.4
- Btc expression level: 0.8829
- Btc log2(fold_change) vs control: 1.8593
- Car9 expression level: 2.126
- Car9 log2(fold_change) vs control: -2.151
- Cbs expression level: 0.2841
- Cbs log2(fold_change) vs control: -2.782
- Ccl4 expression level: 0.1702
- Ccl4 log2(fold_change) vs control: -2.322
- Cd68 expression level: 3.478
- Cd68 log2(fold_change) vs control: 1.602
- Cd200 expression level: 0.493
- Cd200 log2(fold_change) vs control: -1.526
- Cherp expression level: 31.4407
- Cherp log2(fold_change) vs control: -2.561
- Clec2g expression level: 0
- Clec2g log2(fold_change) vs control: -inf
- Cnnm4 expression level: 3.148
- Cnnm4 log2(fold_change) vs control: -4.001
- Cox15 expression level: 16.947
- Cox15 log2(fold_change) vs control: 1.531
- Cpa2 expression level: 0.3137
- Cpa2 log2(fold_change) vs control: -2.329
- Ctrl expression level: 0.115
- Ctrl log2(fold_change) vs control: -3.153
- Dcun1d1 expression level: 4.486
- Dcun1d1 log2(fold_change) vs control: -1.564
- Defb42 expression level: 0.09112
- Defb42 log2(fold_change) vs control: -3.331
- Dtx1 expression level: 0.6816
- Dtx1 log2(fold_change) vs control: -1.292
- Ehf expression level: 0.1594
- Ehf log2(fold_change) vs control: -2.391
- Ercc2 expression level: 13.0262
- Ercc2 log2(fold_change) vs control: -3.709
- Erh expression level: 2.145
- Erh log2(fold_change) vs control: -1.557
- Fmnl1 expression level: 0.08875
- Fmnl1 log2(fold_change) vs control: -3.4
- Gys2 expression level: 0
- Gys2 log2(fold_change) vs control: -inf
- Hist1h2ab expression level: 1.7305
- Hist1h2ab log2(fold_change) vs control: 2.585
- Hist1h2bg expression level: 0.5684
- Hist1h2bg log2(fold_change) vs control: -2
- Hist1h2bh expression level: 0
- Hist1h2bh log2(fold_change) vs control: -inf
- Hist1h4c expression level: 0
- Hist1h4c log2(fold_change) vs control: -inf
- Isl1 expression level: 0.3239
- Isl1 log2(fold_change) vs control: -1.316
- Krt19 expression level: 10.8799
- Krt19 log2(fold_change) vs control: 1.0982
- Larp1b expression level: 3.399
- Larp1b log2(fold_change) vs control: -2.948
- Lhx6 expression level: 2.278
- Lhx6 log2(fold_change) vs control: -2.362
- Lsm5 expression level: 1.07
- Lsm5 log2(fold_change) vs control: -1.322
- M1ap expression level: 1.3491
- M1ap log2(fold_change) vs control: 1.119
- Med9os expression level: 0.7965
- Med9os log2(fold_change) vs control: -1.386
- Nckipsd expression level: 11.1997
- Nckipsd log2(fold_change) vs control: 1.42
- Nr3c2 expression level: 0.3025
- Nr3c2 log2(fold_change) vs control: -1.869
- Nr6a1 expression level: 0.323
- Nr6a1 log2(fold_change) vs control: -2.52
- Ntrk3 expression level: 0.007819
- Ntrk3 log2(fold_change) vs control: -7.899
- Parvg expression level: 0.4359
- Parvg log2(fold_change) vs control: -1.7705
- Pde4dip expression level: 25.3974
- Pde4dip log2(fold_change) vs control: -7.279
- Psd4 expression level: 0.1525
- Psd4 log2(fold_change) vs control: -3.368
- Ptpa expression level: 177.146
- Ptpa log2(fold_change) vs control: 1.413
- Ptpn6 expression level: 0.3394
- Ptpn6 log2(fold_change) vs control: -5.148
- Rnu3a expression level: 0
- Rnu3a log2(fold_change) vs control: -inf
- Rpph1 expression level: 0.6606
- Rpph1 log2(fold_change) vs control: -1
- Rsad1 expression level: 1.045
- Rsad1 log2(fold_change) vs control: -1.592
- Saa1 expression level: 0
- Saa1 log2(fold_change) vs control: -inf
- Samd12 expression level: 1.71
- Samd12 log2(fold_change) vs control: -1.081
- Scn8a expression level: 0.1177
- Scn8a log2(fold_change) vs control: -2.776
- Sgca expression level: 0.3824
- Sgca log2(fold_change) vs control: -1.697
- Slc15a4 expression level: 15.7859
- Slc15a4 log2(fold_change) vs control: -1.861
- Slc16a5 expression level: 0.2329
- Slc16a5 log2(fold_change) vs control: -1.992
- Snhg9 expression level: 7.505
- Snhg9 log2(fold_change) vs control: -1.322
- St7 expression level: 25.5959
- St7 log2(fold_change) vs control: -1.436
- Stmn1 expression level: 6.591
- Stmn1 log2(fold_change) vs control: 2.0805
- Susd1 expression level: 1.936
- Susd1 log2(fold_change) vs control: 1.474
- Syt8 expression level: 0.7109
- Syt8 log2(fold_change) vs control: -2.1726
- Syt12 expression level: 0.9907
- Syt12 log2(fold_change) vs control: -2.055
- Tldc2 expression level: 0.1921
- Tldc2 log2(fold_change) vs control: -2.216
- Tnnc2 expression level: 0.313
- Tnnc2 log2(fold_change) vs control: -1.361
- Unc5c expression level: 0.1434
- Unc5c log2(fold_change) vs control: -2.931
- Wdr17 expression level: 1.106
- Wdr17 log2(fold_change) vs control: -1.028
- Zbtb18 expression level: 4.966
- Zbtb18 log2(fold_change) vs control: -3.168
- Zfp618 expression level: 1.583
- Zfp618 log2(fold_change) vs control: -1.597
- number of genes downregulated, FC ≥ 2: 540
- number of genes upregulated, FC ≥ 2: 437
- number of genes solely downregulated (FC ≥ 2): 116 (11%)
- number of genes solely upregulated (FC ≥ 2): 193 (12.8%)
